# Assay: Polymorph screening (slurry, liquid vapor diffusion, cooling, evaporation, anti-solvent, large scale) with crystal type by XRPD
# Assay type: physicochemical
# Details: for Observations: large scale (200 mg)
# Protocol: Slurry-based generation and/or screening for HM30181 mesylate polymorphs was performed by preparing slurries of starting material HM30181 mesylate Type A in a variety of solvents and under a variety of conditions as described below. The resulting solids were analyzed by XRPD and identified for physical state.
# Generation and/or screening of HM30181 mesylate polymorphs was also performed by preparing HM30181 mesylate Type A starting material for liquid and solid vapor diffusion as described below. Resulting solids were analyzed by XRPD and identified for physical state. Liquid vapor diffusion of MTBE into NMP solution yielded HM30181 mesylate Type D (see FIG. 21). Liquid vapor diffusion of MEK into NMP or DMA solution yielded HM30181 mesylate Type D (see FIG. 21). […] Liquid vapor diffusion of 2-MeTHF into DMA or DMF solution yielded HM30181 mesylate Type E (see FIG. 22). Liquid vapor diffusion of MTBE into DMA solution yielded HM30181 mesylate Type E, with a few additional diffraction peaks, which Inventors believe are attributable to HM30181 mesylate Type I (see FIGS. 4 to 8). Liquid vapor diffusion of ACN into DMSO solution yielded HM30181 mesylate Type H (see FIG. 23). Liquid vapor diffusion of Acetone, Ethyl Acetate, or isopropyl acetate into DMA solution yielded HM30181 mesylate Type I (see FIG. 24).
# Generation and/or screening of HM30181 mesylate polymorphs by cooling was carried out by treating HM30181 mesylate Type A starting material using gradual or rapid (i.e. crash) cooling as described below. The resulting solids were analyzed by XRPD and identified for physical state.
# HM30181 mesylate was also subjected to evaporation methods by treating HM30181 mesylate Type A starting material as described below. The resulting solids were analyzed by XRPD and identified for physical state.
# Generation and/or screening of HM30181 mesylate polymorphs by treatment with anti-solvents was performed by treating HM30181 mesylate Type A starting material as described below. The resulting solids were analyzed by XRPD and identified for physical state. Anti-solvent studies in DMSO yielded HM30181 mesylate Type C (see FIG. 26). Anti-solvent studies in N,N-dimethylacetamide with methyl t-butyl ether yielded a HM30181 mesylate Type F polymorphism (see FIG. 27). Anti-solvent addition and reverse anti-solvent addition in DMSO/EtOAc, DMA/MIBK, DMA/toluene and NMP/t-BuOH yielded primarily amorphous content and a polymorphism with some similarity to HM30181 mesylate Type J (see FIG. 28). Other anti-solvent studies in DMSO and DMF yielded a HM30181 mesylate Type K polymorphism (or possibly a mixture of types, see FIG. 29). Anti-solvent experiments in DMF/n-propanol and DMA/isopropanol yielded a HM30181 mesylate Type L polymorphism (see FIG. 30). Anti-solvent addition DMF/Toluene and DMA/t-BuOH were mostly amorphous, but also generated HM30181 mesylate Type M (see FIG. 31).
# Large scale studies were performed with HM30181 mesylate Type A starting material on a 200 mg scale as described below. Solids were isolated by vacuum filtration. The wet cakes from filtration from DMA, DMF, and NMP slurries were washed with 1 mL to 2 mL methanol to remove solvents. Solids were then vacuum dried at 80° C. overnight.
# Screening of polymorphisms of HM30181 mesylate can include preparation of a slurry. Typically, a slurry was prepared by suspending 5 mg to 20 mg of sample in 0.1 mL to 0.5 mL solvent in a 1.5 mL or 3.0 mL glass vial. The suspension a was stirred at target temperature (e.g. 4° C., ambient temperature, 50° C.) at 200 rpm. Solids for X-ray powder diffraction (XRPD) analysis were separated by centrifuging at 14,000 rpm for 5 minutes at ambient temperature. If no solid or gel is obtained, the slurry can be move to a fume hood for evaporation of the solvent.
# In some embodiments anti-solvent addition was used. […]
smiles,measurement,setting,value
"COc1cc2c(cc1OC)CN(CCc1ccc(-n3nnc(-c4cc(OC)c(OC)cc4NC(=O)c4cc(=O)c5ccccc5o4)n3)cc1)CC2.CS(=O)(=O)O [HM30181 mesylate Type A, HM30181 mesylate]",XRPD (wet cake),"Crash Cooling 50° C.-->−20° C., CHCl3 4 mL, API 25.4 mg, Exp. 6007235-17-C10",No solids
same,XRPD (wet cake),"Crash Cooling 50° C.-->−20° C., DCM 10 mL, API 22.1 mg, Exp. 6007235-17-C13",No solids
same,XRPD (wet cake),"Crash Cooling 50° C.-->−20° C., DMA 4 mL, API 26.9 mg, Exp. 6007235-17-C15",Amorphous
same,XRPD (wet cake),"Crash Cooling 50° C.-->−20° C., DMF 4 mL, API 25.1 mg, Exp. 6007235-17-C16",Amorphous
same,XRPD (wet cake),"Crash Cooling 50° C.-->−20° C., EtOH 20 mL, API 5 mg, Exp. 6007235-17-C11",No solids
same,XRPD (wet cake),"Crash Cooling 50° C.-->−20° C., MeOH 10 mL, API 22.9 mg, Exp. 6007235-17-C9",No solids
same,XRPD (wet cake),"Crash Cooling 50° C.-->−20° C., NMP 4 mL, API 26.2 mg, Exp. 6007235-17-C14",Amorphous
same,XRPD (wet cake),"Crash cooling 50° C.-->−20° C., ACN 10 mL, API 12.6 mg, Exp. 6007235-17-C12",Type C
same,XRPD (wet cake),"Slow Cooling 50° C.-->4° C., ACN 10 mL, API 12.6 mg, Exp. 6007235-17-C4",Type C
same,XRPD (wet cake),"Slow Cooling 50° C.-->4° C., DMF 4 mL, API 25.1 mg, Exp. 6007235-17-C8",No solids
same,XRPD (wet cake),"Slow Cooling 50° C.-->4° C., EtOH 20 mL, API 5 mg, Exp. 6007235-17-C3",No solids
same,XRPD (wet cake),"Slow Cooling 50° C.-->4° C., MeOH 20 mL, API 24.7 mg, Exp. 6007235-17-C1",No solids
same,XRPD (wet cake),"Slow Cooling 50° C.-->4° C., NMP 4 mL, API 20.9 mg, Exp. 6007235-17-C6",No solids
same,Identification,"anti-solvent (Table 13), solvent CHCl3, anti-solvent EtOH 10 mL, NB 6004273-06-A102",Type A
same,Identification,"anti-solvent (Table 13), solvent CHCl3, anti-solvent MTBE 10 mL, NB 6004273-06-A103",Type A
same,Identification,"anti-solvent (Table 13), solvent CHCl3, anti-solvent n-Heptane 10 mL, NB 6004273-06-A104",Type A
same,Identification,"anti-solvent (Table 13), solvent DMSO, anti-solvent Toluene 10 mL, NB 6004273-06-A106",Amorphous
same,Identification,"anti-solvent, solvent CHCl3, anti-solvent 2-MeTHF 10 mL, NB 6004273-06-A27",Type A
same,Identification,"anti-solvent, solvent CHCl3, anti-solvent ACN 10 mL, NB 6004273-06-A30",Type A
same,Identification,"anti-solvent, solvent CHCl3, anti-solvent Acetone 10 mL, NB 6004273-06-A22",Type A
same,Identification,"anti-solvent, solvent CHCl3, anti-solvent CPME 10 mL, NB 6004273-06-A42",Type A
same,Identification,"anti-solvent, solvent CHCl3, anti-solvent Cyclohexane 10 mL, NB 6004273-06-A35",Type A
same,Identification,"anti-solvent, solvent CHCl3, anti-solvent DCM 10 mL, NB 6004273-06-A31",Type A
same,Identification,"anti-solvent, solvent CHCl3, anti-solvent EtOAc 10 mL, NB 6004273-06-A24",Type A
same,Identification,"anti-solvent, solvent CHCl3, anti-solvent Ethanol 10 mL, NB 6004273-06-A20",Type A
same,Identification,"anti-solvent, solvent CHCl3, anti-solvent Ethyl formate 10 mL, NB 6004273-06-A40",Type A
same,Identification,"anti-solvent, solvent CHCl3, anti-solvent IPA 10 mL, NB 6004273-06-A21",Type A
same,Identification,"anti-solvent, solvent CHCl3, anti-solvent MEK 10 mL, NB 6004273-06-A36",Type A
same,Identification,"anti-solvent, solvent CHCl3, anti-solvent MIBK 10 mL, NB 6004273-06-A23",Type A
same,Identification,"anti-solvent, solvent CHCl3, anti-solvent MTBE 10 mL, NB 6004273-06-A29",Type A
same,Identification,"anti-solvent, solvent CHCl3, anti-solvent MeOAc 10 mL, NB 6004273-06-A34",Type A
same,Identification,"anti-solvent, solvent CHCl3, anti-solvent THF 10 mL, NB 6004273-06-A26",Type A
same,Identification,"anti-solvent, solvent CHCl3, anti-solvent Toluene 10 mL, NB 6004273-06-A32",Type A
same,Identification,"anti-solvent, solvent CHCl3, anti-solvent iBuOAc 10 mL, NB 6004273-06-A41",Type A
same,Identification,"anti-solvent, solvent CHCl3, anti-solvent iPrOAc 10 mL, NB 6004273-06-A25",Type A
same,Identification,"anti-solvent, solvent CHCl3, anti-solvent n-Heptane 10 mL, NB 6004273-06-A33",Type A
same,Identification,"anti-solvent, solvent CHCl3, anti-solvent n-Propanol 10 mL, NB 6004273-06-A38",Type A
same,Identification,"anti-solvent, solvent CHCl3, anti-solvent n-Propyl acetate 10 mL, NB 6004273-06-A39",Type A
same,Identification,"anti-solvent, solvent CHCl3, anti-solvent t-Butanol 10 mL, NB 6004273-06-A37",Type A
same,Identification,"anti-solvent, solvent DMA, anti-solvent t-Butanol 20 mL, NB 6004273-06-A97",Type M
same,Identification,"anti-solvent, solvent DMF, anti-solvent EtOAc 10 mL, NB 6004273-06-A47",Type A
same,Identification,"anti-solvent, solvent DMF, anti-solvent EtOH 20 mL, NB 6004273-06-A43",Amorphous
same,Identification,"anti-solvent, solvent DMF, anti-solvent IPA 10 mL, NB 6004273-06-A44",Type K
same,Identification,"anti-solvent, solvent DMF, anti-solvent MIBK 10 mL, NB 6004273-06-A46",Amorphous
same,Identification,"anti-solvent, solvent DMF, anti-solvent MTBE 10 mL, NB 6004273-06-A52",Type A
same,Identification,"anti-solvent, solvent DMF, anti-solvent Toluene 10 mL, NB 6004273-06-A56",Type M
same,Identification,"anti-solvent, solvent DMF, anti-solvent n-Propyl acetate 10 mL, NB 6004273-06-A61",Type A
same,Identification,"anti-solvent, solvent DMSO, anti-solvent 2-MeTHF 10 mL, NB 6004273-06-A8",Amorphous
same,Identification,"anti-solvent, solvent DMSO, anti-solvent ACN 20 mL, NB 6004273-06-A11",Type C
same,Identification,"anti-solvent, solvent DMSO, anti-solvent Acetone 10 mL, NB 6004273-06-A3",Type K
same,Identification,"anti-solvent, solvent DMSO, anti-solvent CHCl3 20 mL, NB 6004273-06-A13",Type K
same,Identification,"anti-solvent, solvent DMSO, anti-solvent EtOH 20 mL, NB 6004273-06-A1",Type K
same,Identification,"anti-solvent, solvent DMSO, anti-solvent MIBK 10 mL, NB 6004273-06-A4",Type K
same,Identification,"anti-solvent, solvent DMSO, anti-solvent MTBE 20 mL, NB 6004273-06-A10",Amorphous
same,Identification,"anti-solvent, solvent DMSO, anti-solvent Toluene 10 mL, NB 6004273-06-A14",Amorphous
same,Identification,"anti-solvent, solvent DMSO, anti-solvent n-Propanol 10 mL, NB 6004273-06-A18",Type K
same,Identification,"anti-solvent, solvent DMSO, anti-solvent n-Propyl acetate 10 mL, NB 6004273-06-A19",Type K
same,Identification,"anti-solvent, solvent DMSO, anti-solvent t-Butanol 10 mL, NB 6004273-06-A17",Type K
same,Identification,"anti-solvent, solvent NMP, anti-solvent 1,4-Dioxane 20 mL, NB 6004273-06-A70",Type A
same,Identification,"anti-solvent, solvent NMP, anti-solvent MEK 20 mL, NB 6004273-06-A77",Amorphous
same,Observations,"Anti-solvent addition, DMA 20 mL, 5 mg/mL, anti-solvent t-BuOH 200 mL, Desired Type M, NB 6004273-10-M",Amorphous
same,Observations,"Anti-solvent addition, DMF 20 mL, 5 mg/mL, anti-solvent Toluene 300 mL, Desired Type M, NB 6004273-10-M1",Amorphous
same,Observations,"Anti-solvent addition, DMF 20 mL, 5 mg/mL, anti-solvent n-propanol 200 mL, Desired Type L, NB 6004273-10-L",Amorphous
same,Observations,"Anti-solvent addition, DMSO 10 mL, 60 mg/mL, anti-solvent MIBK 200 mL, Desired Type K, NB 6004273-10-K",Amorphous
same,Observations,"Slurry at 50° C., DMF 0.2 mL, 576 mg/mL, Desired Type G, NB 6004273-10-G",Type F
same,Observations,"Slurry at 100° C. (for 2 days), DMF 0.2 mL, 595 mg/mL, Desired Type G, NB 6004273-10-F-100C",Type F
same,Observations,"Slurry at 150° C. (for 5 d), DMF 0.2 mL, 595 mg/mL, Desired Type G, NB 6004273-10-F-150C",Decomposition
same,Observations,"Slurry at ambient temperature, DMA 0.2 mL, 576 mg/mL, Desired Type E, NB 6004273-10-E",Type E
same,Observations,"Slurry at ambient temperature, DMF 0.2 mL, 595 mg/mL, Desired Type F, NB 6004273-10-F",Type A
same,Observations,"Slurry at ambient temperature, MeCN 0.2 mL, 545 mg/mL, Desired Type C, NB 6004273-10-C",Type C
same,Observations,"Slurry at ambient temperature, MeOH 0.2 mL, 480 mg/mL, Desired Type B, NB 6004273-10-B",Type N
same,Observations,"Slurry at ambient temperature, NMP 0.2 mL, 550 mg/mL, Desired Type D, NB 6004273-10-D",Amorphous
